Measured values as given in patent publication US6737383B1, “Herbicidal oxadiazolidines” (priority 1999, dated 2004).

How the values were obtained:
giant foxtail = assay: Test B pre/postemergence giant foxtail; assay type: in vivo, Setaria faberii
Summary of the method: (§1)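 Response is a visual 0-to-10 score relative to untreated plants, where 0 means no effect and 10 means complete control, taken twelve to sixteen days after application. Treatments went onto soil at planting and onto foliage of 1- to 4-leaf plants, using a surfactant-containing non-phytotoxic solvent.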

smallflower flatsedge = assay: Test B flood test smallflower flatsedge; assay type: in vivo, Cyperus difformis; conditions: Pre-emergence
Summary of the method: (§2)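 Plants were grown to the 2-leaf stage before treatment with test chemical, then held in a greenhouse for twelve to sixteen days. Injury was visually rated against untreated controls on a 0–10 scale, where 0 is no effect and 10 is complete control.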

bedstraw = assay: Test B pre/postemergence bedstraw; assay type: in vivo, Galium aparine
Summary of the method: as §1

cocklebur = assay: Test B pre/postemergence cocklebur; assay type: in vivo, Xanthium strumarium
Summary of the method: as §1

sugar beet = assay: Test B pre/postemergence sugar beet; assay type: in vivo, Beta vulgaris
Summary of the method: as §1

bamyardgrass = assay: Test B flood test barnyardgrass; assay type: in vivo, Echinochloa crus-galli; conditions: Pre-emergence
Summary of the method: as §2

purple nutsedge = assay: Test B pre/postemergence purple nutsedge; assay type: in vivo, Cyperus rotundus
Summary of the method: as §1

morningglory = assay: Test B pre/postemergence morningglory; assay type: in vivo, Ipomoea hederacea
Summary of the method: as §1

pigweed = assay: Test B pre/postemergence pigweed; assay type: in vivo, Amaranthus retroflexus
Summary of the method: as §1

surinam grass = assay: Test B pre/postemergence surinam grass; assay type: in vivo, Brachiaria decumbens
Summary of the method: as §1

rape = assay: Test B pre/postemergence rape; assay type: in vivo, Brassica napus
Summary of the method: as §1

blackgrass = assay: Test B pre/postemergence blackgrass; assay type: in vivo, Alopecurus myosuroides
Summary of the method: as §1

wild oat = assay: Test B pre/postemergence wild oat; assay type: in vivo, Avena fatua
Summary of the method: as §1

soybean = assay: Test B pre/postemergence soybean; assay type: in vivo, Glycine max
Summary of the method: as §1

duck salad = assay: Test B flood test duck salad; assay type: in vivo, Heteranthera limosa; conditions: Pre-emergence
Summary of the method: as §2

wheat = assay: Test B pre/postemergence wheat; assay type: in vivo, Triticum aestivum
Summary of the method: as §1

[1] = Postemergence, Rate 125 g/ha, scale 0 to 10, 0 is no effect, 10 is complete control
[2] = Preemergence, Rate 62 g/ha, scale of 0 to 10 where 0 is no effect and 10 is complete control
[3] = Preemergence, Rate 250 g/ha, scale of 0 to 10 where 0 is no effect and 10 is complete control
[4] = Preemergence, Rate 500 g/ha, scale of 0 to 10 where 0 is no effect and 10 is complete control
[5] = Rate 62 g/ha, Postemergence, scale 0 to 10 (0 no effect, 10 complete control)
[6] = Rate 500 g/ha, Postemergence, scale 0 to 10, 0 no effect, 10 complete control
[7] = Rate 1000 g/ha, scale 0 to 10 (0 no effect, 10 complete control)
[8] = Rate 125 g/ha, flood test species, scale 0 to 10 where 0 is no effect and 10 is complete control
[9] = Rate 250 g/ha, flood-test species, scale 0 to 10, 0 is no effect, 10 is complete control
[10] = Rate 500 g/ha, flood test species, scale 0 to 10 (0 no effect, 10 complete control)
[11] = Rate 250 g/ha, Postemergence, scale of 0 to 10 where 0 is no effect and 10 is complete control

CC(C)N(C(=O)n1oc(=O)n(-c2ccc3ccccc3c2)c1=O)c1ccc(Cl)cc1 [Compound 333]
2: Giant foxtail plant response rating (giant foxtail; [4]) | Plant response rating, Soybean (soybean; [1]) | Soybean plant response rating (soybean; [5])
0: Plant response rating, Giant foxtail (giant foxtail; [1]) | Giant foxtail plant response rating (giant foxtail; [2]) | Giant foxtail plant response rating (0 to 10 scale) (giant foxtail; Preemergence, Rate 125 g/ha) | Giant foxtail plant response rating (giant foxtail; [3]) | Giant foxtail plant response rating (giant foxtail; [5]) | Plant response rating, Giant foxtail (giant foxtail; [6]) | S. Flatsedge plant response rating (smallflower flatsedge; [7]) | S. Flatsedge plant response rating (smallflower flatsedge; [8]) | S. Flatsedge plant response rating (smallflower flatsedge; [9]) | S. Flatsedge plant response rating (smallflower flatsedge; [10]) | Plant response rating, Bedstraw (bedstraw; [1]) | Bedstraw plant response rating (bedstraw; [2]) | Bedstraw plant response rating (0 to 10 scale) (bedstraw; Preemergence, Rate 125 g/ha) | Bedstraw plant response rating (bedstraw; [3]) | Bedstraw plant response rating (bedstraw; [4]) | Bedstraw plant response rating (bedstraw; [5]) | Plant response rating, Bedstraw (bedstraw; [11]) | Plant response rating, Bedstraw (bedstraw; [6]) | Plant response rating, Cocklebur (cocklebur; [1]) | Cocklebur plant response rating (cocklebur; [2]) | Cocklebur plant response rating (0 to 10 scale) (cocklebur; Preemergence, Rate 125 g/ha) | Cocklebur plant response rating (cocklebur; [3]) | Cocklebur plant response rating (cocklebur; [4]) | Cocklebur plant response rating (cocklebur; [5]) | Plant response rating, Cocklebur (cocklebur; [6]) | Plant response rating, Sugarbeets (sugar beet; [1]) | Sugarbeets plant response rating (sugar beet; [2]) | Sugarbeets plant response rating (0 to 10 scale) (sugar beet; Preemergence, Rate 125 g/ha) | Sugarbeets plant response rating (sugar beet; [3]) | Sugarbeets plant response rating (sugar beet; [4]) | Sugarbeets plant response rating (sugar beet; [5]) | Plant response rating, Sugarbeets (sugar beet; [6]) | Barnyardgrass plant response rating (bamyardgrass; [7]) | Barnyardgrass plant response rating (bamyardgrass; [8]) | Barnyardgrass plant response rating (bamyardgrass; [9]) | Barnyardgrass plant response rating (bamyardgrass; [10]) | Plant response rating, Nutsedge (purple nutsedge; [1]) | Nutsedge plant response rating (purple nutsedge; [2]) | Nutsedge plant response rating (0 to 10 scale) (purple nutsedge; Preemergence, Rate 125 g/ha) | Nutsedge plant response rating (purple nutsedge; [3]) | Nutsedge plant response rating (purple nutsedge; [4]) | Nutsedge plant response rating (purple nutsedge; [5]) | Plant response rating, Nutsedge (purple nutsedge; [6]) | Plant response rating, Morningglory (morningglory; [1]) | Morningglory plant response rating (morningglory; [2]) | Morningglory plant response rating (0 to 10 scale) (morningglory; Preemergence, Rate 125 g/ha) | Morningglory plant response rating (morningglory; [3]) | Morningglory plant response rating (morningglory; [4]) | Morningglory plant response rating (morningglory; [5]) | Plant response rating, Morningglory (morningglory; [6]) | Plant response rating, Redroot pigweed (pigweed; [1]) | Redroot pigweed plant response rating (pigweed; [2]) | Redroot pigweed plant response rating (0 to 10 scale) (pigweed; Preemergence, Rate 125 g/ha) | Redroot pigweed plant response rating (pigweed; [3]) | Redroot pigweed plant response rating (pigweed; [4]) | Redroot pigweed plant response rating (pigweed; [5]) | Plant response rating, Redroot pigweed (pigweed; [6]) | Plant response rating, B. signalgrass (surinam grass; [1]) | B. signalgrass plant response rating (surinam grass; [2]) | B. signalgrass plant response rating (0 to 10 scale, 0 is no effect, 10 is complete control) (surinam grass; Preemergence, Rate 125 g/ha) | B. signalgrass plant response rating (surinam grass; [3]) | B. signalgrass plant response rating (surinam grass; [4]) | B. signalgrass plant response rating (surinam grass; [5]) | Plant response rating, B. signalgrass (surinam grass; [11]) | Plant response rating, B. signalgrass (surinam grass; [6]) | Plant response rating, Rape (rape; [1]) | Rape plant response rating (rape; [2]) | Rape plant response rating (0 to 10 scale) (rape; Preemergence, Rate 125 g/ha) | Rape plant response rating (rape; [3]) | Rape plant response rating (rape; [4]) | Rape plant response rating (rape; [5]) | Plant response rating, Rape (rape; [6]) | Plant response rating, Blackgrass (blackgrass; [1]) | Blackgrass plant response rating (blackgrass; [2]) | Blackgrass plant response rating (0 to 10 scale) (blackgrass; Preemergence, Rate 125 g/ha) | Blackgrass plant response rating (blackgrass; [3]) | Blackgrass plant response rating (blackgrass; [4]) | Blackgrass plant response rating (blackgrass; [5]) | Plant response rating, Blackgrass (blackgrass; [11]) | Plant response rating, Blackgrass (blackgrass; [6]) | Plant response rating, Wild oats (wild oat; [1]) | Wild oats plant response rating (wild oat; [2]) | Wild oats plant response rating (0 to 10 scale) (wild oat; Preemergence, Rate 125 g/ha) | Wild oats plant response rating (wild oat; [3]) | Wild oats plant response rating (wild oat; [4]) | Wild oats plant response rating (wild oat; [5]) | Plant response rating, Wild oats (wild oat; [6]) | Soybean plant response rating (soybean; [2]) | Soybean plant response rating (0 to 10 scale) (soybean; Preemergence, Rate 125 g/ha) | Soybean plant response rating (soybean; [3]) | Soybean plant response rating (soybean; [4]) | Ducksalad plant response rating (duck salad; [7]) | Ducksalad plant response rating (duck salad; [8]) | Ducksalad plant response rating (duck salad; [9]) | Ducksalad plant response rating (duck salad; [10]) | Plant response rating, Wheat (wheat; [1]) | Wheat plant response rating (wheat; [2]) | Wheat plant response rating (0 to 10 scale) (wheat; Preemergence, Rate 125 g/ha) | Wheat plant response rating (wheat; [3]) | Wheat plant response rating (wheat; [4]) | Wheat plant response rating (wheat; [5]) | Plant response rating, Wheat (wheat; [6])
4: Plant response rating, Soybean (soybean; [6])
